Test results: PMC12040169 (PLOS Biology, 2025)

test: in vitro; conditions: human, hela cells, % viability

Row | Compound | viability at 28.5 h, 10 µM
1 | COc1ccc(C(=O)CCC(=O)Nc2cccnc2)c(OC)c1 [CBK266923] | 105%
2 | Cc1ccccc1NC(=O)CC(C(=O)O)N(C)C (stereo not shown) [CBK266924] | 103%
3 | COC(=O)c1c(NC(=S)NCc2ccc(S(N)(=O)=O)cc2)sc2c1CCC2 [CBK266926] | 88.5%
4 | NS(=O)(=O)c1ccc(NC(=S)NNS(=O)(=O)c2ccc(Br)cc2)cc1 [CBK266928] | 111%
5 | COc1ccc(NC(=O)Nc2nn(Cc3ccc(Cl)cc3Cl)cc2Br)cc1OC [CBK266930] | 101%
6 | CN(CC(=O)N1CCC(Cc2ccccc2)CC1)S(=O)(=O)c1ccc2ccccc2c1 [CBK266931] | 78.2%
7 | CS(=O)(=O)N(CC(=O)Nc1ccc(S(=O)(=O)N2CCCCCC2)cc1)c1ccc(F)cc1 [CBK266932] | 91.8%
8 | COC(=O)c1cc(C)sc1NC(=S)Nc1ccn(Cc2ccc(Br)cc2)n1 [CBK266934] | 99.6%
9 | COC(=O)c1c(NC(=S)Nc2cnccn2)sc2c1CCC2 [CBK266935] | 90.3%
10 | S=C(Nc1ncn(Cc2ccc(Cl)c(Cl)c2)n1)Nc1ccc(Br)cc1Cl [CBK266940] | 92.7%
11 | CC(=O)c1ccc(NC(=O)NNS(=O)(=O)c2ccc(F)cc2)cc1 [CBK266944] | 109%
12 | COc1ccc(-c2c(C)nn3c(=O)c(Cc4ccccc4)c(C)[nH]c23)cc1 [CBK266951] | 94.2%
13 | CN(C)C(CC(=O)Nc1cccc(Cl)c1Cl)C(=O)O (stereo not shown) [CBK266952] | 107%
14 | Cc1cc(=O)oc2cc(NC(=S)NNC(=O)C3CCN(Cc4ccc(F)cc4Cl)CC3)ccc12 [CBK266953] | 99.4%
15 | COc1ccc(NC(=O)CC(C(=O)O)N2CCOCC2)cc1 (stereo not shown) [CBK266955] | 101%
16 | O=C(O)Cc1ccc(NC(=S)Nc2ccc([N+](=O)[O-])cc2)cc1 [CBK266959] | 98.7%
17 | O=C(Nc1ccc(N2CCN(Cc3ccccc3)CC2)cc1)c1nc[nH]n1 [CBK266960] | 105%
18 | Cn1nc([N+](=O)[O-])nc1Sc1nnnn1-c1ccc(C(=O)O)cc1 [CBK266961] | 109%
19 | COC(=O)c1c(NC(=S)Nc2ccc(Br)cn2)sc2c1CCC(C)C2 (stereo not shown) [CBK266962] | 94.6%
20 | Cc1nn(C)c(C(=O)NNC(=S)Nc2ccc(S(N)(=O)=O)cc2)c1Br [CBK266963] | 92.5%
21 | CN(C)CCNC(=S)Nc1ccc([N+](=O)[O-])cc1 [CBK266964] | 97.7%
22 | CCn1ncc(CN2CCN(C(=S)Nc3ccccc3C(F)(F)F)CC2)c1C [CBK266968] | 96.2%

Row | Compound | viability at 28.5 h, 10 µM
23 | NS(=O)(=O)c1ccc(NC(=S)NNC(=O)c2cc(Br)ccc2Cl)cc1 [CBK266970] | 89.3%
24 | O=C(CN1C(=O)c2ccccc2S1(=O)=O)Nc1ccccc1C(=O)N1CCOCC1 [CBK266975] | 93.3%
25 | O=C(CC(NC1CCCC1)C(=O)O)Nc1ccc(F)cc1 (stereo not shown) [CBK266976] | 93.9%
26 | CC(=O)c1ccc(NC(=O)COn2nnc3ccc([N+](=O)[O-])cc32)cc1 [CBK266980] | 101%
27 | Cc1[nH]c2ccccc2c1Cc1n[nH]c(=S)n1Cc1ccccc1 [CBK266985] | 99.5%
28 | COc1ccc(OCC(=O)Nc2ccc3c(c2)nc2n3CCN(Cc3ccccc3)C2)cc1 [CBK266989] | 97.6%
29 | Cc1ccc(-c2c(C(=O)NNC(=S)NCc3ccco3)csc2C)cc1 [CBK266992] | 96.3%
30 | CN(C)Cc1cc(C(C)(C)C)cc(CN(C)C)c1O [CBK266994] | 98.4%
31 | Cc1c(Cc2ccccc2)c(=O)oc2c(CN3CCCC(C)C3)c(O)ccc12 (stereo not shown) [CBK266995] | 93.2%
32 | CC(=O)c1cccc(NC(=O)Nc2cccc(S(=O)(=O)N3CCOCC3)c2)c1 [CBK266996] | 89.9%
33 | O=c1[nH]c2ccc(S(=O)(=O)Nc3ccc(-c4ccccc4)cc3)cc2[nH]1 [CBK266999] | 99.8%
34 | O=C(O)C(CC(=O)N1CCOCC1)NCc1ccccc1 (stereo not shown) [CBK267000] | 100%
35 | Cc1cc(C)c(NS(=O)(=O)c2ccc(NC(=S)Nc3ccc(S(N)(=O)=O)cc3)cc2)c(C)c1 [CBK267005] | 94.2%
36 | CC(C)(O)C#Cc1ccc(C(=O)N2CCN(C/C=C/c3ccccc3)CC2)s1 [CBK267007] | 99.5%
37 | O=C(CC(C(=O)O)N1CCOCC1)Nc1ccccc1 (stereo not shown) [CBK267008] | 111%
38 | Cc1nnc(N2C(=O)c3oc4ccc(Cl)cc4c(=O)c3C2c2cccnc2)s1 (stereo not shown) [CBK267010] | 105%
39 | COc1cc([N+](=O)[O-])cc2cc(C(=O)NNC(=O)c3ccccc3Cl)c(=O)oc12 [CBK267011] | 92.8%
40 | Cc1cc(C)c(C)c(S(=O)(=O)Nc2ccc(O)c(Sc3nc[nH]n3)c2)c1C [CBK267012] | 66.6%
41 | CC(C)(C)NS(=O)(=O)c1ccc(NC(=O)COc2ccc3ccccc3c2Br)cc1 [CBK267015] | 96.5%
42 | O=C(CSCc1ccc(Cl)cc1)Nc1ccc(S(=O)(=O)N2CCCCCC2)cc1 [CBK267017] | 112%
43 | COc1ccc(NC(=O)Nc2nn(Cc3c(F)cccc3Cl)cc2Cl)cc1OC [CBK267019] | 89.3%
44 | NS(=O)(=O)c1ccc(NC(=S)Nc2nn(Cc3ccc(Cl)cc3Cl)cc2Cl)cc1 [CBK267020] | 90.6%

Row | Compound | viability at 28.5 h, 10 µM
45 | S=C(NCc1ccco1)Nc1nn(Cc2ccc(Cl)cc2Cl)cc1Cl [CBK267021] | 80.7%
46 | Cc1cc(C)nc(Nc2n[nH]c(Cc3ccccc3)n2)n1 [CBK267023] | 96.3%
47 | NS(=O)(=O)c1ccc(NC(=S)NNC(=O)C2c3ccccc3Oc3ccccc32)cc1 [CBK267024] | 99.2%
48 | CCN1CCN(C(=O)c2ccccc2N(Cc2ccccc2)S(C)(=O)=O)CC1 [CBK267028] | 101%
49 | Cc1nn(C)c(C)c1CN1CCN(C(=S)Nc2ccc(S(N)(=O)=O)cc2)CC1 [CBK267030] | 94.1%
50 | O=C(Nc1ccc2c(c1)nc1n2CCN(Cc2ccccc2)C1)NC1CCCCC1 [CBK267033] | 109%
51 | O=C(Cn1cc(/C=C/c2[nH]c(=O)[nH]c(=O)c2[N+](=O)[O-])c2ccccc21)Nc1ccc2c(c1)OCO2 [CBK267036] | 80.8%
52 | CC(=O)c1ccc(-c2ccc(/C=C\c3[nH]c(=O)[nH]c(=O)c3[N+](=O)[O-])o2)cc1 [CBK267038] | 90.7%
53 | COC(=O)c1c(NC(=S)NCc2ccc(S(N)(=O)=O)cc2)sc2c1CCC(C)C2 (stereo not shown) [CBK267039] | 97.6%
54 | O=C(CCc1ccc(O)c(O)c1)NNC(=S)Nc1ccc(F)cc1F [CBK267041] | 114%
55 | O=C(Nc1cccc(C(F)(F)F)c1)Nc1cccc(S(=O)(=O)N2CCOCC2)c1 [CBK267043] | 99%
56 | Cc1cc(=O)oc2cc(NC(=S)N3CCN(C/C=C/c4ccccc4)CC3)ccc12 [CBK267045] | 92%
57 | CN1CCN(C(=O)CN(C)S(=O)(=O)c2ccc3ccccc3c2)CC1 [CBK267053] | 96.4%
58 | COC(=O)c1c(NC(=S)NCc2ccccn2)sc(C(=O)N(C)C)c1C [CBK267055] | 98.8%
59 | CC(NS(=O)(=O)c1ccc(CCC(=O)O)cc1)c1ccccc1 (stereo not shown) [CBK267058] | 88.1%
60 | O=C(NCc1ccc2c(c1)OCO2)C1CN(S(=O)(=O)c2ccccc2)CCN1S(=O)(=O)c1ccccc1 (stereo not shown) [CBK267059] | 102%
61 | COc1ccccc1CNC(=O)c1ccc(Cl)c(S(=O)(=O)N2CCOCC2)c1 [CBK267060] | 69.3%
62 | Cc1ccc(-c2c(C(=O)NNC(=S)NCC3CCCO3)csc2C)cc1 (stereo not shown) [CBK267062] | 86.6%
63 | COc1ccc(Cl)cc1NC(=S)NCCn1cc(Cl)cn1 [CBK267063] | 89.8%
64 | COc1cc([N+](=O)[O-])ccc1NC(=S)NCc1ccc(S(N)(=O)=O)cc1 [CBK267067] | 100%
65 | Cc1ccc(NC(=O)CC(C(=O)O)N(C)C)cc1 (stereo not shown) [CBK267068] | 81.7%
66 | Cc1nn(C)cc1CN1CCN(C(=S)NCCc2ccccc2)CC1 [CBK267069] | 98.4%

Row | Compound | viability at 28.5 h, 10 µM
67 | CCOC(=O)c1c(NC(=S)N2CCN(S(C)(=O)=O)CC2)sc(C)c1-c1ccccc1 [CBK267072] | 98%
68 | COC(=O)c1c(NC(=S)NNC(=O)c2nn(C)cc2I)sc2c1CCC2 [CBK267074] | 97.7%
69 | O=S(=O)(c1ccc(Cl)cc1)N1CCN(S(=O)(=O)N2CCCCC2)CC1 [CBK267075] | 96.1%
70 | Cc1cc(C)nc(Nc2n[nH]c(-c3ccc(NC(=O)Nc4ccccc4)cc3)n2)n1 [CBK267076] | 92.7%
71 | Cc1cc(CNC(=S)Nc2ccc(S(N)(=O)=O)cc2)nn1C [CBK267077] | 98.7%
72 | COC(=O)c1sc(NC(=S)Nc2ccn(C)n2)c(C(=O)OC)c1C [CBK267078] | 99.5%
73 | Cc1[nH]c2ccc(C(=O)O)cc2c1CC(=O)O [CBK267080] | 96.3%
74 | Cc1cc(C)c(S(=O)(=O)NC(CC(=O)O)c2ccccc2)cc1C (stereo not shown) [CBK267081] | 86.8%
75 | S=C(NCc1ccc(-n2cccn2)cc1)NCC1CCCO1 (stereo not shown) [CBK267083] | 96.7%
76 | Cc1ccc([N+](=O)[O-])cc1/C=C(/C#N)c1nc2ccccc2s1 [CBK267085] | 95.4%
77 | O=C(CC(C(=O)O)N1CCOCC1)Nc1ccc(Cl)cc1 (stereo not shown) [CBK267086] | 105%
78 | Cc1cc(C)cc(C(=O)NC(=S)Nc2sc(C)c(C)c2C#N)c1 [CBK267089] | 92.1%
79 | COC(=O)c1c(NC(=S)NCc2ccccn2)sc2c1CCC2 [CBK267090] | 95.9%
80 | COC(=O)c1cc(C)sc1NC(=S)Nc1cnn(Cc2cccc3ccccc23)c1 [CBK267098] | 101%
81 | CCc1c(C)c2cc(Cl)c(O)c(CN3CCCC3)c2oc1=O [CBK267099] | 105%
82 | COC(=O)c1c(NC(=S)N2CCN(Cc3c(C)nn(C)c3C)CC2)sc2c1CCC(C)C2 (stereo not shown) [CBK267103] | 94.9%
83 | CC(C)(C)OC(=O)NNC(=S)Nc1ccc(S(N)(=O)=O)cc1 [CBK267107] | 100%
84 | Cc1ccccc1C(=O)Nc1cccc(NC(=O)c2nc[nH]n2)c1 [CBK267108] | 86.6%
85 | c1ccc2c(c1)nc(-c1cscn1)n2CCCCc1nnn[nH]1 [CBK267110] | 93.7%
